Columns and labels:
PRPS1 [1] = target: T1, PRPS1 (Homo sapiens, UniProt P60891); experiment: steady-state kinetics, coupled assay at […] nm; type: biochemical
T1 construct: full length
T1 sequence (P60891 2-318): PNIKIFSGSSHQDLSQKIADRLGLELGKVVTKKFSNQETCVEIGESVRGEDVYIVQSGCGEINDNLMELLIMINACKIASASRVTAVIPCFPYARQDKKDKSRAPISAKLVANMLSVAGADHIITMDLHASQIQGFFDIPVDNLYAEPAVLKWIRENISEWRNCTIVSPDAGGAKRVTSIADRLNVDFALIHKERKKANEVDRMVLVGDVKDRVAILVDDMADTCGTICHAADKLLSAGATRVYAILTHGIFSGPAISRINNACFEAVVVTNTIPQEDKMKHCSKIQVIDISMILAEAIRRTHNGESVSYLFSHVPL

PRPS2(-3AA/Q156K) = target: T2, PRPS2(-3AA/Q156K) (Homo sapiens, UniProt P11908, Q153K); experiment: HPLC feedback inhibition assay (AMP production); type: biochemical
T2 construct: full length chimeric variant, 3AA (V103, G104, E105) deleted
T2 sequence (P11908 2-318 Q153K): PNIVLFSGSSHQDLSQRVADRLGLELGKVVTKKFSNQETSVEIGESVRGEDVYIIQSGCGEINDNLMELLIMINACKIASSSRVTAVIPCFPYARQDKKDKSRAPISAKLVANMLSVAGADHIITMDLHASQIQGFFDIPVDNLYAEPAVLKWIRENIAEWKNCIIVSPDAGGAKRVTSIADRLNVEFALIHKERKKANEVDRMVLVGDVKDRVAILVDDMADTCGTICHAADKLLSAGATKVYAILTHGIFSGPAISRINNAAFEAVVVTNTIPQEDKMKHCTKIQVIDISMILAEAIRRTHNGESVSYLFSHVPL

PRPS1 [2] = target: T1, PRPS1; experiment: ITC; co-crystal structure with R5P, ApCpp, Cd2+; enzyme inhibition (IC50 […]); type: binding
[3] = target: the molecule itself; experiment: crystal structure; co-crystallisation of 500 μM purified PRPS with ApCpp or GDP (1:5), R5P, crystals soaked in 1 mM CdCl2; 277 K

## Nc1ncnc2c1ncn2[C@@H]1O[C@H](COP(=O)(O)OP(=O)(O)OP(=O)(O)O)[C@@H](O)[C@H]1O [ATP]
PRPS1 [1]
  steady-state kinetics, coupled assay at 340 nm: The catalytic efficiencies of PRPS2 and PRPS1 on either ATP or R5P were characterized

## Nc1nc2c(ncn2[C@@H]2O[C@H](CO[P@](=O)(O)OP(=O)(O)O)[C@@H](O)[C@H]2O)c(=O)[nH]1 [GDP]
PRPS2(-3AA/Q156K)
  HPLC feedback inhibition assay (AMP production): chimeric variants of PRPS1( + 3AA/K153Q) and PRPS2(-3AA/Q156K), which exhibited switched GDP feedback inhibition responses
PRPS1 [2]
  Kd: 10 µM

B1: PRPS1( + 3AA), PRPS1 chimeric variant (enzyme, human, UniProt P60891 1-318, looked up)
chain: MPNIKIFSGSSHQDLSQKIADRLGLELGKVVTKKFSNQETCVEIGESVRGEDVYIVQSGCGEINDNLMELLIMINACKIASASRVTAVIPCFPYARQDKKDKVGESRAPISAKLVANMLSVAGADHIITMDLHASQIQGFFDIPVDNLYAEPAVLKWIRENISEWRNCTIVSPDAGGAKRVTSIADRLNVDFALIHKERKKANEVDRMVLVGDVKDRVAILVDDMADTCGTICHAADKLLSAGATRVYAILTHGIFSGPAISRINNACFEAVVVTNTIPQEDKMKHCSKIQVIDISMILAEAIRRTHNGESVSYLFSHVPL
notes: PRPS1, human, full length, with the three residues V, G, E of PRPS2 (V103, G104, E105) inserted into the corresponding position of Loop2; the C-terminal residue is then L321; Crystallised with R5P, ApCpp and Cd2+; also called PRPS1 chimera; source: E. coli BL21(DE3), purified (Ni-NTA, ion exchange, Superdex-200); not shown: His-Sumo, N-terminal, cleaved
[3]
  binding result: binds

B2: recombinant PRPS2 (enzyme, human, UniProt P11908-2 1-321, looked up)
chain: MPNIVLFSGSSHQDLSQRVADRLGLELGKVVTKKFSNQETSVEIGESVRGEDVYIIQSGCGEINDNLMELLIMINACKIASSSRVTAVIPCFPYARQDKKDKVGESRAPISAKLVANMLSVAGADHIITMDLHASQIQGFFDIPVDNLYAEPAVLQWIRENIAEWKNCIIVSPDAGGAKRVTSIADRLNVEFALIHKERKKANEVDRMVLVGDVKDRVAILVDDMADTCGTICHAADKLLSAGATKVYAILTHGIFSGPAISRINNAAFEAVVVTNTIPQEDKMKHCTKIQVIDISMILAEAIRRTHNGESVSYLFSHVPL
notes: PRPS2, human, full-length gene synthesised and subcloned into pSumo; the form with V103, G104, E105 (3AA) in Loop2 and Q156, i.e. the 321-residue isoform; Crystallised with R5P, ApCpp and Cd2+; source: E. coli BL21(DE3), purified (Ni-NTA, ion exchange, Superdex-200); not shown: His-Sumo, N-terminal, cleaved
[3]
  binding result: binds

Reference: publication PMC12037730 (Nature Communications, 2025)
